Results on 8 compounds are retold here after ChEMBL document CHEMBL1135491, “Novel 2-oxoamide inhibitors of human group IVA phospholipase A(2)” (J Med Chem, 2002).

The term inhibition denotes the change of the read-out against control, counted positive when it falls. A low value points to little suppression.

In test [1] the target is T1, Cytosolic phospholipase A2 (Homo sapiens) (UniProt P47712).
T1 sequence (whole entry): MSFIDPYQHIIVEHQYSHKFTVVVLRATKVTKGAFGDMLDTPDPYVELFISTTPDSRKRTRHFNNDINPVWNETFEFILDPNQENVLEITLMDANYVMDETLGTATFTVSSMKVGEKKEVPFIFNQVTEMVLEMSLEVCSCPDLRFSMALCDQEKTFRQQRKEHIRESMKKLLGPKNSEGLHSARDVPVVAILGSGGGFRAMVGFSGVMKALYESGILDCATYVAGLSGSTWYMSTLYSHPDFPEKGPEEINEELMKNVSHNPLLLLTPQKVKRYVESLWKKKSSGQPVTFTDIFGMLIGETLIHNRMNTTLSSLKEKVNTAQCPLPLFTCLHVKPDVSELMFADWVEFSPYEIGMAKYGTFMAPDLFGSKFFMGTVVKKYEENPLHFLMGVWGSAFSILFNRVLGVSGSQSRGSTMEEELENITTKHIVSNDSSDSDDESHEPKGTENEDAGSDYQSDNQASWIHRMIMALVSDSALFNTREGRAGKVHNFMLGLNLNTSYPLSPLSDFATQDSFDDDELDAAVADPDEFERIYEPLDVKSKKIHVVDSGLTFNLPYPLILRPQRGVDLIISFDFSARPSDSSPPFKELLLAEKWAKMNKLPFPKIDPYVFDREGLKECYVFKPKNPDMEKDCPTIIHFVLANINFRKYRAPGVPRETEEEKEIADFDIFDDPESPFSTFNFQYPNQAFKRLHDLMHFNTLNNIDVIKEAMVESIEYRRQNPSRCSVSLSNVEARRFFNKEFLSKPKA
Briefly: Inhibitory activity against human Group IVA Phospholipase A2 (GIVA PLA2); Inactive.

The target in test [2] is T1, Cytosolic phospholipase A2 (Homo sapiens). Nature of the test: Inhibitory activity against human Group IVA Phospholipase A2 (GIVA PLA2).
The target is the same in test [3]. Nature of the test: Inhibitory activity against human Group IVA Phospholipase A2 (GIVA PLA2), at 0.02 mole fraction.

The source made the active and inactive calls. The calls are words filed in the database; no cut-off is given here.

For `CCCCCCCC/C=C\CCCCCCCCNC(=O)C(=O)CCCCCCCCCCCCCC`, the IA result in test [1] is “inactive”.
For the compound `CCCCCCCCCCCCCC(=O)C(N)=O`, the IA result in test [1] was “inactive”.
The compound `CCCCCCCCCCC(=O)C(=O)N[C@H](CCCC)CCC(=O)O` showed an XI50 in test [2] of 0.068.
With `CCCCCCCCCCCCCCC(=O)C(=O)NCCCC(=O)O`, the XI50 in test [2] was determined as 0.017.
Consider `CCCCCCC(=O)C(=O)NCCCC(=O)O`, for which the IA result in test [1] was “inactive”.
For `CCCCCCCCCCCCCCC(=O)C(=O)NCCCCCC`, the inhibition in test [3] was 22%.
Regarding `CCCCCCCC/C=C\CCCCCCCCNC(=O)C(=O)CCCCCC`, in test [1], the IA result was “inactive”.
Regarding `CCCCCCCCCCC(=O)C(=O)N[C@@H](CCCC)CCC(=O)O`, the XI50 in test [2] was determined as 0.009.
